Assay results: PubChem BioAssay (NCI)
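Cells were grown in 96-well plates and exposed to each compound for 48 hours at five concentrations; endpoints were interpolated linearly between bracketing concentrations, or set to the highest concentration if not reached. The concentration for 50% growth inhibition is given as GI50. TGI: total growth inhibition.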

What was measured:
Assay in all cases: NCI-60 cell line screen, 48 h
[1] = system: CAKI-1 renal
[2] = system: SF-268 CNS
[3] = system: SK-MEL-28 melanoma
[4] = system: CCRF-CEM leukemia
[5] = system: ACHN renal
[6] = system: SF-539 CNS
[7] = system: TK-10 renal
[8] = system: A498 renal
[9] = system: MOLT-4 leukemia
[10] = system: NCI-H23 lung

| SMILES | TGI [1] | TGI [2] | TGI [3] | TGI [4] | TGI [5] | TGI [6] | TGI [7] | TGI [8] | TGI [9] | GI50 [1] | GI50 [2] | GI50 [3] | GI50 [4] | GI50 [5] | GI50 [6] | GI50 [7] | GI50 [10] | TGI [10] | GI50 [9] | GI50 [8] |
| --- | --- | --- | --- | --- | --- | --- | --- | --- | --- | --- | --- | --- | --- | --- | --- | --- | --- | --- | --- | --- |
| O=C1CC(=O)N(C2CCCCC2)C(=O)N1c1ccccc1S(=O)(=O)Oc1ccccc1 | > 100 µM | > 100 µM | > 100 µM | 54.5 µM | 36.5 µM | > 100 µM | > 100 µM | > 100 µM | 37.8 µM |  |  |  |  |  |  |  |  |  |  |  |
| Cc1cc(NC(=O)C2c3ccccc3C(=O)N(CC(C)C)C2c2cccs2)no1 (stereo not given) | > 100 µM | > 100 µM | > 100 µM | > 100 µM | > 100 µM | > 100 µM | > 100 µM |  | > 100 µM | 25.6 µM | > 100 µM | > 100 µM | 82.5 µM | 55.2 µM | > 100 µM | > 100 µM | > 100 µM | > 100 µM | 43.1 µM |  |
| OB([O][Hg][c]1ccccc1)[O][Hg][c]1ccccc1 | 2.01 µM | 2.5 µM | 1.33 µM |  | 1.39 µM | 2.34 µM |  | 2.48 µM | 0.643 µM | 0.639 µM | 1.06 µM | 0.318 µM |  | 0.493 µM | 1.09 µM |  | 0.784 µM | 2.17 µM | 0.177 µM | 0.98 µM |
| Cc1cc(Br)cc(C)c1NC(=O)C(=O)CC(=O)c1sc(-n2nc(-c3ccccc3)cc2-c2ccccc2)nc1C | > 100 µM | > 100 µM | > 100 µM | > 100 µM | > 100 µM |  | > 100 µM | > 100 µM | > 100 µM |  |  |  |  |  |  |  |  | > 100 µM |  |  |
| COc1c(OC(C)=O)ccc(/C=C2\N=C(C)OC2=O)c1[N+](=O)[O-] | > 100 µM | > 100 µM |  | > 100 µM | > 100 µM | > 100 µM | > 100 µM | > 100 µM | > 100 µM |  |  |  |  |  |  |  |  |  |  |  |
| C1CCC([PH+](C2CCCCC2)C2CCCCC2[PH+](C2CCCCC2)C2CCCCC2)CC1.[Au].[CH-]1CCCCC1C1CCCC[N-]1 (stereo not given) |  |  | 1.79 µM | > 100 µM | 2.17 µM | 1.28 µM | 1.86 µM | 0.581 µM | > 100 µM |  |  | 0.434 µM | 0.426 µM | 1 µM | 0.337 µM | 0.463 µM |  |  | 0.366 µM | 0.122 µM |
| CC1(C)N=C(N)N=C(N)N1c1cccc(/C=C/C=C/c2cccc([N+](=O)[O-])c2)c1 | > 100 µM | 17.4 µM | 20.5 µM | 18.9 µM | > 100 µM | 17.6 µM |  | 39.3 µM | 23.6 µM | 75.3 µM | 3.64 µM | 7.1 µM | 3.61 µM | 75.7 µM | 4.43 µM |  |  |  | 5.9 µM | 13 µM |
| CC(C)=CC(=O)CC(=O)C(=O)Nc1ccc(C)c(C)c1 | > 100 µM | > 100 µM | > 100 µM | > 100 µM | > 100 µM | > 100 µM | > 100 µM |  | > 100 µM |  |  |  |  |  |  |  |  | > 100 µM |  |  |
| ClC(=Nc1cccc2ccccc12)N(c1ccccc1)c1ccccc1 | > 100 µM |  | > 100 µM |  | > 100 µM |  | > 100 µM | > 100 µM |  |  |  |  |  |  |  |  |  | > 100 µM |  |  |
